Where “and” joins values, the source holds several entries; their conditions need not be identical. Equal entries are not always repeated. Marks after values point to notes of the source that are not given here.
Experiments:
patients with T2DM [1] = experiment: Example 1 study: Mixed Meal Tolerance Test (MMTT); type: in vivo, human
Description: In respect of Cohort 1, the MMTT is performed at baseline and on Day 80. In respect of Cohort 2, the MMTT is performed at baseline and on Day 108.
Patients are provided breakfast meals for the MMTTs. Upon awakening, patients consume water to stay hydrated in order to mitigate problems with blood sample collections. Patients are provided individualized breakfast meals for the MMTTs. The total caloric content is approximately 30% of the daily estimated caloric need for weight. The macronutrient composition of the meals is targeted to provide approximately 50% of the calories from carbohydrate, 30% of the calories from fat, and 20% of the calories from protein. Patients are fasted (except for water) for at least 8 hours before each test meal and consume each meal within approximately 20 minutes. Test meals for each patient are kept consistent with respect to calorie and nutrient content across all MMTT assessments in the study.
For both parts of the study, the patient is not allowed to consume water (apart from fluid provided with the meal) for approximately 3 hours post MMTT until BOD POD® measurement.
While resident in the CRU, patients may not consume any food or caloric drinks other than that provided by the CRU. When not resident in the CRU, patients may resume their regular diet. The actual time of meal start and completion, total calories, and amount of meal (%) consumed in the MMTT are recorded.

[2] = Example 1 study: pharmacokinetics, population PK modeling; settings: for AUC(0-168)ss, geometric mean (CV %) / Cmax, ss, geometric mean: model-predicted steady state
Description: Up to two samples may be collected at additional time points during the study if warranted and agreed upon between both the investigator and sponsor.
All available PK data is utilized for model development.

patients with T2DM [3] = experiment: Example 1 study: HbA1c; type: in vivo, human
Description: This study is a Phase 1, single-site, patient- and investigator-blinded, placebo controlled, randomized, non-crossover, multiple-ascending dose study with titration in each cohort in patients with T2DM to investigate the safety, tolerability, PK, and PD of the GLP-1/glucagon co-agonist peptide of SEQ ID NO:1 (Compound 1) administered as multiple SC injections QW for 12 weeks in Cohort 1 and 16 weeks in Cohort 2.
The first dosing regimen (also referred to as Cohort 1) is 12 weeks in duration and requires dose increments of 1.5 mg starting from 1.5 mg: • 1.5 mg QW Compound 1 for 4 weeks; • 3.0 mg QW Compound 1 for 4 weeks; and • 4.5 mg QW Compound 1 for 4 weeks.
The second dosing regimen (also referred to as Cohort 2) is 16 weeks in duration and requires dose increments of 2 mg starting from 2 mg: • 2 mg QW Compound 1 for 3 weeks; • 4 mg QW Compound 1 for 3 weeks; • 6 mg QW Compound 1 for 3 weeks; • 8 mg QW Compound 1 for 3 weeks; and • 10 mg QW Compound 1 for 4 weeks.
In respect of Cohort 1, HbA1c levels are determined at baseline and Days 1, 29, 57 and 78. In respect of Cohort 2, HbA1c is measured at baseline and Days 1, 22, 43, 64, 85 and 106.

[4] = Cohort 1, escalated to 4.5 mg, Day 80
[5] = Cohort 2, escalated to 10.0 mg, Day 108

In the case of `CC(C)C[C@H](NC(=O)[C@H](CC(C)C)NC(=O)[C@H](Cc1c[nH]c2ccccc12)NC(=O)[C@H](CCC(=O)O)NC(=O)[C@@H](NC(=O)[C@H](Cc1ccccc1)NC(=O)[C@H](CCC(=O)O)NC(=O)[C@H](CCCCNC(=O)COCCOCCNC(=O)COCCOCCNC(=O)CC[C@H](NC(=O)CCCCCCCCCCCCCCCCCCC(=O)O)C(=O)O)NC(=O)[C@H](C)NC(=O)[C@H](CCCCN)NC(=O)[C@H](CCCCN)NC(=O)[C@H](CCC(=O)O)NC(=O)[C@H](CC(=O)O)NC(=O)[C@H](CC(C)C)NC(=O)[C@H](Cc1ccc(O)cc1)NC(=O)[C@H](CCCCN)NC(=O)[C@H](CO)NC(=O)[C@H](Cc1ccc(O)cc1)NC(=O)[C@H](CC(=O)O)NC(=O)[C@H](CO)NC(=O)[C@@H](NC(=O)[C@H](Cc1ccccc1)NC(=O)[C@@H](NC(=O)CNC(=O)[C@H](CCC(N)=O)NC(=O)C(C)(C)NC(=O)[C@@H](N)Cc1c[nH]cn1)[C@@H](C)O)[C@@H](C)O)C(C)C)C(=O)N[C@@H](CCC(=O)O)C(=O)NCC(=O)NCC(=O)N1CCC[C@H]1C(=O)N[C@@H](CO)C(=O)N[C@@H](CO)C(=O)NCC(N)=O` [Compound 1], the “C-peptide AUC(0-3 h) during MMTT, mean” value (patients with T2DM [1]; Cohort 1 (1.5-4.5 mg QW), Day 80, baseline 4391.4) is reported as 5850.1 pmol·h/L, the “C-peptide AUC(0-3 h) during MMTT, change from baseline” value (patients with T2DM [1]; Cohort 1, Day 80) is reported as 1474.6* pmol · h/L and the “Disposition index, change from baseline” value (patients with T2DM [1]; Cohort 1, Day 80) is reported as −0.235. For the same compound, the “First PH ISI-S, change from baseline” value (patients with T2DM [1]; Cohort 1, Day 80) was 12090.422, the “Glucagon AUC(0-3 h) during MMTT, change from baseline” value (patients with T2DM [1]; Cohort 1, Day 80) was -32.50 pmol·h/L and the “Glucose AUC(0-3 h) during MMTT, change from baseline” value (patients with T2DM [1]; Cohort 1, Day 80) was -14.37 mmol·h/L. The “HOMA2-B, change from baseline” value (patients with T2DM [1]; Cohort 1, Day 80) was 22.971, the “HOMA2-IR, change from baseline” value (patients with T2DM [1]; Cohort 1, Day 80) was −0.434 and the “ISI-M (Matsuda Index), change from baseline” value (patients with T2DM [1]; Cohort 1, Day 80) was 0.237. For the same compound, the “MMTT glucose AUC 0-3 hours, approximate decrease from baseline” value (patients with T2DM [1]; Cohort 1, Day 80) was roughly 40%, the “Oxyntomodulin AUC(0-3 h) during MMTT, change from baseline” value (patients with T2DM [1]; Cohort 1, Day 80) was -41.594 pmol·h/L and the “Second PH ISI-S, change from baseline” value (patients with T2DM [1]; Cohort 1, Day 80) was 2273.29. The “Disposition index, mean” value (patients with T2DM [1]; Cohort 1, Day 80, baseline 1.033) was 0.642, the “ISI-M (Matsuda Index), mean” value (patients with T2DM [1]; Cohort 1, Day 80, baseline 3.568) was 3.567 and the “HOMA2-IR, mean” value (patients with T2DM [1]; Cohort 1, Day 80, baseline 4.704) was 4.271. The “HOMA2-B, mean” value (patients with T2DM [1]; Cohort 1, Day 80, baseline 15.791) was 38.762, the “Glucose AUC(0-3 h) during MMTT, mean” value (patients with T2DM [1]; Cohort 1, Day 80, baseline 43.06) was 25.76 mmol·h/L and 25.72 mmol·h/L and the “Glucagon AUC(0-3 h) during MMTT, mean” value (patients with T2DM [1]; Cohort 1, Day 80, baseline 64.98) was 27.93 pmol·h/L. For the same compound, the “Oxyntomodulin AUC(0-3 h) during MMTT, mean” value (patients with T2DM [1]; Cohort 1, Day 80, baseline 89.822) was 58.042 pmol·h/L, the “Second PH ISI-S (second phase Stumvoll Index), mean” value (patients with T2DM [1]; Cohort 1, Day 80, baseline −6253.26) was −3634.241 and the “First PH ISI-S (first phase Stumvoll Index), mean” value (patients with T2DM [1]; Cohort 1, Day 80, baseline −33534.1) was −19605.805. The “MMTT C-peptide AUC 0-3 hours, approximate increase from baseline” value (patients with T2DM [1]; [4]) was roughly 33%, the “MMTT glucagon AUC 0-3 hours, approximate decrease from baseline” value (patients with T2DM [1]; [4]) was roughly 57% and the “MMTT insulin AUC 0-3 hours, approximate increase from baseline” value (patients with T2DM [1]; [4]) was roughly 51%. The “Matsuda index (ISI-M) versus baseline” value (patients with T2DM [1]; [4]) was “no change from baseline”, the “MMTT insulin mean area under the curve 0-3 hours” value (patients with T2DM [1]; Cohort 1, escalated to 4.5 mg, Day 80, baseline 125.233) was 189.435 h*mIU/L and the “C-peptide AUC(0-3 h) during MMTT, mean” value (patients with T2DM [1]; Cohort 2 (2-10 mg QW), Day 108, baseline 3604.1) was 3147.4 pmol·h/L. For the same compound, the “C-peptide AUC(0-3 h) during MMTT, change from baseline” value (patients with T2DM [1]; Cohort 2, Day 108) was -897.4 pmol·h/L, the “Disposition index, change from baseline” value (patients with T2DM [1]; Cohort 2, Day 108) was −0.198 and the “First PH ISI-S (first phase Stumvoll Index), mean” value (patients with T2DM [1]; Cohort 2, Day 108) was −19372.347. For the same compound, the “First PH ISI-S, change from baseline” value (patients with T2DM [1]; Cohort 2, Day 108) was 11985.334, the “Glucagon AUC(0-3 h) during MMTT, change from baseline” value (patients with T2DM [1]; Cohort 2, Day 108) was -40.55 pmol·h/L and the “Glucose AUC(0-3 h) during MMTT, change from baseline” value (patients with T2DM [1]; Cohort 2, Day 108) was -15.73 mmol·h/L. For the same compound, the “HOMA2-B, change from baseline” value (patients with T2DM [1]; Cohort 2, Day 108) was 3.824, the “HOMA2-IR, change from baseline” value (patients with T2DM [1]; Cohort 2, Day 108) was −1.071 and the “ISI-M (Matsuda Index), change from baseline” value (patients with T2DM [1]; Cohort 2, Day 108) was 5.905. For the same compound, the “Oxyntomodulin AUC(0-3 h) during MMTT, change from baseline” value (patients with T2DM [1]; Cohort 2, Day 108) was -49.843 pmol·h/L, the “Second PH ISI-S, change from baseline” value (patients with T2DM [1]; Cohort 2, Day 108) was 2252.292 and the “Disposition index, mean” value (patients with T2DM [1]; Cohort 2, Day 108, baseline 1.276) was 1.265. The “HOMA2-IR, mean” value (patients with T2DM [1]; Cohort 2, Day 108, baseline 2.7) was 1.325, the “ISI-M (Matsuda Index), mean” value (patients with T2DM [1]; Cohort 2, Day 108, baseline 4.616) was 10.7 and the “HOMA2-B, mean” value (patients with T2DM [1]; Cohort 2, Day 108, baseline 9.108) was 12.077. For the same compound, the “Glucose AUC(0-3 h) during MMTT, mean” value (patients with T2DM [1]; Cohort 2, Day 108, baseline 38.27) was 23.74 mmol·h/L, the “Glucagon AUC(0-3 h) during MMTT, mean” value (patients with T2DM [1]; Cohort 2, Day 108, baseline 39.89) was 7.61 pmol·h/L and the “Oxyntomodulin AUC(0-3 h) during MMTT, mean” value (patients with T2DM [1]; Cohort 2, Day 108, baseline 124.741) was 66.077 pmol·h/L. For the same compound, the “Second PH ISI-S (second phase Stumvoll Index), mean” value (patients with T2DM [1]; Cohort 2, Day 108, baseline −5889.19) was −3593.001, the “MMTT C-peptide AUC 0-3 hours, approximate decrease from baseline” value (patients with T2DM [1]; [5]) was roughly 13% and the “MMTT glucagon AUC 0-3 hours, approximate decrease from baseline” value (patients with T2DM [1]; [5]) was roughly 81%. The “MMTT glucose AUC 0-3 hours, approximate decrease from baseline” value (patients with T2DM [1]; [5]) was roughly 38%, the “MMTT insulin AUC 0-3 hours, approximate decrease from baseline” value (patients with T2DM [1]; [5]) was roughly 10% and the “Matsuda index (ISI-M), approximate increase from baseline” value (patients with T2DM [1]; [5]) was “approximately 132%”. For the same compound, the “MMTT insulin area under the curve 0-3 hours” value (patients with T2DM [1]; Cohort 2, escalated to 10.0 mg, Day 108, baseline 77.692) was 69.847 h*mIU/L, the “sMMTT total cholesterol levels” value (patients with T2DM [1]; Cohort 2 doses (FIG. 7b)) was “substantially reduced” and the “sMMTT HDL cholesterol levels” value (patients with T2DM [1]; Cohort 2 doses (FIG. 7e)) was “substantially reduce”. The “sMMTT LDL cholesterol levels” value (patients with T2DM [1]; Cohort 2 doses (FIG. 7f)) was “substantially reduce”, the sMMTT triglyceride levels (patients with T2DM [1]; Cohort 2 doses (FIG. 7h)) was “substantially reduce” and the “reduction of glucagon secretion from baseline in response to mixed meals” value (patients with T2DM [1]; dose up to 4.5 mg) was “greater than 50%”. For the same compound, the “reduction of glucagon secretion from baseline in response to mixed meals” value (patients with T2DM [1]; dose up to 10 mg) was “greater than 80%”, the Vd/F ([2]; human, plasma, sc) was 9.52 L and the “AUC(0-168)ss, geometric mean (CV %)” value ([2]; 4.5 mg QW) was 106000 (22.5%) ng · h/mL. The “Cmax, ss, geometric mean” value ([2]; 4.5 mg QW) was 698 ng/mL, the “AUC(0-168)ss, geometric mean (CV %)” value ([2]; 10 mg QW) was 239000 (23.9%) ng · h/mL and the “Cmax, ss, geometric mean” value ([2]; 10 mg QW) was 1570 ng/mL. The “Absorption rate constant, KA, population mean estimate” value ([2]; population PK model, 355 concentrations from 18 patients, SC QW) was 0.0299 h⁻¹, the “Change from Baseline in HbA1c” value (patients with T2DM [3]; Cohort 1 (1.5-4.5 mg QW), Day 29, baseline 8.52) was −0.70* % and the “Change from Baseline in HbA1c” value (patients with T2DM [3]; Cohort 1, Day 57, baseline 8.52) was −1.45* %. The “Change from Baseline in HbA1c” value (patients with T2DM [3]; Cohort 1, Day 78, baseline 8.52) was −1.80* %, the “Change from Baseline in HbA1c” value (patients with T2DM [3]; Cohort 1, Day 106 (28 days after last dose), baseline 8.52) was −2.03* % and the “HbA1c decrease from baseline compared to placebo” value (patients with T2DM [3]; Cohort 1 and Cohort 2, Day 57 until Day 134) was “Statistically significant decreases”. The “Change from Baseline in HbA1c” value (patients with T2DM [3]; Cohort 2 (2-10 mg QW), Day 43, baseline 8.08) was −0.83* %, the “Change from Baseline in HbA1c” value (patients with T2DM [3]; Cohort 2, Day 64, baseline 8.08) was −1.35* % and the “Change from Baseline in HbA1c” value (patients with T2DM [3]; Cohort 2, Day 85, baseline 8.08) was −1.50* %. The “Change from Baseline in HbA1c” value (patients with T2DM [3]; Cohort 2, Day 106, baseline 8.08) was −1.67* %.

— patent US20260248879A1, “METHODS OF USING A GCG/GLP1 CO-AGONIST FOR THERAPY” (ELI LILLY AND COMPANY, priority 2022, published 2026)
